Values of other authors as cited in paper PMC4291083, “Ex Vivo Characterization of a Novel Iodine-123-Labelled Aminomethylchroman as a Potential Agonist Ligand for SPECT Imaging of Dopamine D2/3 Receptors” (International Journal of Molecular Imaging, 2014).

Key:
Parameters in all cases: method as in PMID 24325578
D1 receptor = conditions: in vitro; cited from earlier work
D2 receptor = conditions: agonism D2 receptor, cited from earlier work
D2 low = conditions: in vitro; cited from earlier work
D2 high = conditions: in vitro; cited from earlier work
dopamine D4 receptor = conditions: in vitro; cited from earlier work

Substance: (R) N-[7-hydroxychroman-2-yl]-methyl 4-iodobenzyl amine [compound 1]
- Ki (D1 receptor): 8670 nM
- Emax (D2 receptor; cAMP): 86 % of dopamine
- pEC50 cAMP (D2 receptor): 9.2 ± 0.4
- Ki (D2 low): 51.8 nM
- Ki (D2 high): 3.79 nM
- binding affinity to dopamine D4 receptor (dopamine D4 receptor): binds with high-affinity
